Common to all, as to experiment: NCI-60 cell line screen, 48 h
Test [1] concerns COLO 205.
The subject of test [2] is A549.
Test [3] concerns HL-60.
The test system of test [4] is IGROV-1.
Test [5] deals with MDA-MB-231.
Test [6] has as its system ACHN.
In test [7] the test system is NCI/ADR-RES.
Test [8] concerns LOX IMVI.
Test [9] has as its system SW-620.
Test [10] deals with CCRF-CEM.
The test system of test [11] is MOLT-4.
In test [12] the test system is HCT-116.
Test [13] has as its system SF-268.
The subject of test [14] is EKVX.
Test [15] deals with NCI-H522.
Test [16] relates to 786-0.
For test [17], the system named is HT-29.
In test [18] the test system is MCF7.
In test [19] the test system is SN12C.
For test [20], the system named is UO-31.

The results in this text go back to ChEMBL document CHEMBL1201862, “PubChem BioAssay data set” (2004).

Molecules are shown by their SMILES.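 Where inhibition never reached the appropriate level, the endpoint shown equals the highest concentration tested. Otherwise, values were interpolated linearly from a five-concentration, 48-hour dose response in 96-well plates. At the GI50, growth is halved.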 Activity calls are given as the source filed them. No stated cut-off is given here; in the data, active = GI50 up to about 1.1 µM and inactive = higher. A value given as a limit tells only on which side of the number the result lay.

Regarding `O=c1cc(N2CCCC2)[nH]c(=O)n1-c1ccc(Cl)cc1`, the GI50 in [1], in [2], in test [3], in test [4], in [5] and in test [6] was > 100 µM (inactive) each time. In addition, the GI50 in [7], in [8], in [9], in test [10], in test [11] and in test [12] was > 100 µM (inactive) throughout. Further, the GI50 in [13], in [14], in test [15], in test [16], in test [17] and in test [18] was > 100 µM (inactive) in each case. Further, the GI50 in [19] is > 100 µM (inactive).
For `CCn1c(CCCc2nc3c(=O)n(C)c(=O)n(C)c3[nH]2)nc2c1c(=O)n(C)c(=O)n2C`, the GI50 was 12.1 µM (inactive) in [1]; > 100 µM (inactive) in [20]; > 100 µM (inactive) in [2]; 77.8 µM (inactive) in test [3]; > 100 µM (inactive) in test [4]; > 100 µM (inactive) in [5]. Further, the GI50 in test [6], in test [7], in [8], in test [9], in test [10] and in test [11] was > 100 µM (inactive) throughout. Besides, the GI50 in [12] is > 100 µM (inactive); in test [13], > 100 µM (inactive); in test [14], 43 µM (inactive); in test [15], > 100 µM (inactive); in test [16], > 100 µM (inactive); in test [17], > 100 µM (inactive). In addition, the GI50 in [18] was > 100 µM (inactive); in test [19], 46 µM (inactive).
With `C=C1C(=O)[C@@]23CC[C@@H]4[C@@]5(C)CCC[C@@]4(OC5=O)[C@@]2(C)CC[C@@H]1C3`, the GI50 is 2.11 µM (inactive) in test [1]; 1.9 µM (inactive) in test [20]; 3.28 µM (inactive) in [2]; 0.484 µM (active) in test [3]; 1.72 µM (inactive) in test [4]; 1.73 µM (inactive) in test [5]. For the same compound, the GI50 is 1.24 µM (inactive) in test [6]; 3.08 µM (inactive) in [7]; 0.422 µM (active) in test [8]; 0.667 µM (active) in test [9]; 0.303 µM (active) in test [10]; 1.75 µM (inactive) in test [11]. Moreover, the GI50 is 1.13 µM (inactive) in test [12]; 1.72 µM (inactive) in test [13]; 3.15 µM (inactive) in test [14]; 0.497 µM (active) in test [15]; 0.565 µM (active) in test [16]; 0.802 µM (active) in [17]. The GI50 was 0.893 µM (active) in [18] and 3.3 µM (inactive) in test [19].
With `CC1(C)OC2[C@@H](CO[C@@]3([C@@H](O)CCO)OC(C)(C)O[C@@H]23)O1` (stereo partly drawn), the GI50 in test [1], in [20], in [3], in test [4], in test [5] and in [6] was > 100 µM (inactive) each time. The GI50 in test [7], in [8], in [9], in test [10], in test [11] and in [12] was > 100 µM (inactive) throughout. The GI50 in test [13], in test [14], in test [15], in test [16], in test [17] and in [18] was > 100 µM (inactive) throughout. Moreover, the GI50 in [19] was > 100 µM (inactive).
For the compound `O=c1c2cnccc2cc2c3ccccc3ccn12`, the GI50 in test [1] was 63.2 µM (inactive); in test [20], 23.1 µM (inactive); in test [2], 45.8 µM (inactive); in test [3] it was 17.7 µM (inactive); in test [4] it was 6.15 µM (inactive); in test [5], > 100 µM (inactive). The GI50 in [6] is 19.3 µM (inactive); in test [7], > 100 µM (inactive); in test [8] it was 18.9 µM (inactive); in test [9] it was 49.8 µM (inactive); in test [10], 36.6 µM (inactive); in test [11] it was 5.21 µM (inactive). The GI50 in test [12] is 31.8 µM (inactive); in test [13] it was 86.1 µM (inactive); in test [14] it was 3.63 µM (inactive); in test [15], 45.6 µM (inactive); in [16] it was 84.7 µM (inactive); in test [17], 28.2 µM (inactive). Further, the GI50 was 13.2 µM (inactive) in test [18] and 61.2 µM (inactive) in test [19].
With `N/N=C1\CCCc2c1no[n+]2[O-]`, the GI50 in [1], in [20], in test [2], in test [3], in test [4] and in [5] was > 100 µM (inactive) in each case. Moreover, the GI50 in [6], in test [7], in test [8], in test [9], in test [10] and in test [11] was > 100 µM (inactive) throughout. Further, the GI50 in test [12], in [13], in test [14], in test [15], in test [16] and in [17] was > 100 µM (inactive) in each case. The GI50 in test [18] and in [19] was > 100 µM (inactive) throughout.
Consider `COc1nc2ncc([C@@H](O)[C@H](O)CO)nc2c(=O)n1C`, for which the GI50 in test [1], in test [20], in test [2], in test [3], in [4] and in [5] was > 100 µM (inactive) in each case. Further, the GI50 in test [6], in test [7], in test [8], in test [9], in [10] and in test [11] was > 100 µM (inactive) in each case. In addition, the GI50 in [12], in test [13], in test [14], in [15], in test [16] and in test [17] was > 100 µM (inactive) throughout. The GI50 in test [18] and in [19] was > 100 µM (inactive) each time.
As to `O=C1C(NCCc2cc(Br)c(O)c(Br)c2)=CC(=O)c2ncccc21`, the GI50 is 5.7 µM (inactive) in [1]; 5.87 µM (inactive) in [20]; 3.52 µM (inactive) in test [2]; 2.32 µM (inactive) in [3]; 4.15 µM (inactive) in test [4]; 10.2 µM (inactive) in test [5]. Moreover, the GI50 is 6.38 µM (inactive) in test [6]; 9.2 µM (inactive) in test [7]; 1.78 µM (inactive) in [8]; 4.24 µM (inactive) in [9]; 3.39 µM (inactive) in test [10]; 6.71 µM (inactive) in test [11]. In addition, the GI50 in test [12] was 3.71 µM (inactive); in test [13] it was 8.32 µM (inactive); in [14], 16.3 µM (inactive); in test [15], 3.17 µM (inactive); in test [16] it was 7.29 µM (inactive); in test [17], 3.63 µM (inactive). The GI50 is 4.09 µM (inactive) in [18] and 3.8 µM (inactive) in [19].
For the compound `CCN(CC)CCC(=O)/C=C/c1ccccc1`, the GI50 in [1] is 7.11 µM (inactive); in test [20], 13.1 µM (inactive); in test [2] it was 19 µM (inactive); in [3], 2.55 µM (inactive); in test [4] it was 17.5 µM (inactive); in [5] it was 15.5 µM (inactive). Moreover, the GI50 in test [6] is 12.6 µM (inactive); in test [7], 17.5 µM (inactive); in test [8], 2.54 µM (inactive); in test [9], 5.89 µM (inactive); in [10] it was 3.57 µM (inactive); in [11], 6.3 µM (inactive). The GI50 in test [12] is 7.87 µM (inactive); in [13] it was 10.3 µM (inactive); in test [14], 13.9 µM (inactive); in test [15] it was 4.51 µM (inactive); in test [16], 2.67 µM (inactive); in test [17] it was 5.05 µM (inactive). Besides, the GI50 was 2.48 µM (inactive) in [18] and 15.5 µM (inactive) in test [19].
Turning to `CC(C)=CCOc1cc(NC(=S)c2ccsc2C)ccc1Cl`, the GI50 in [1] is 37.3 µM (inactive); in test [20] it was 5.85 µM (inactive); in [2], 46.7 µM (inactive); in test [3], 44.1 µM (inactive); in test [4], 4.43 µM (inactive); in test [5], 13.1 µM (inactive). Also, the GI50 in test [6] was 16.7 µM (inactive); in test [7] it was 80.4 µM (inactive); in [8], 30.7 µM (inactive); in test [9] it was > 100 µM (inactive); in test [10] it was 39.6 µM (inactive); in [11], 20.2 µM (inactive). In addition, the GI50 in test [12] is 26.4 µM (inactive); in test [13], 32.3 µM (inactive); in test [14] it was 56.8 µM (inactive); in test [15] it was 54.5 µM (inactive); in test [16] it was 40.2 µM (inactive); in test [17], > 100 µM (inactive). For the same compound, the results for the GI50 in test [18] and in [19] were 15.4 µM (inactive) and 19 µM (inactive), respectively.
